Laboratory results: patent US9630947B2, “Therapeutic compounds and related methods of use” (OTSUKA PHARMACEUTICAL CO., LTD., priority 2009, dated 2017)

Biological target: T1, purified STEP46 enzyme (Homo sapiens, UniProt P54829)
T1 sequence (P54829 1-565): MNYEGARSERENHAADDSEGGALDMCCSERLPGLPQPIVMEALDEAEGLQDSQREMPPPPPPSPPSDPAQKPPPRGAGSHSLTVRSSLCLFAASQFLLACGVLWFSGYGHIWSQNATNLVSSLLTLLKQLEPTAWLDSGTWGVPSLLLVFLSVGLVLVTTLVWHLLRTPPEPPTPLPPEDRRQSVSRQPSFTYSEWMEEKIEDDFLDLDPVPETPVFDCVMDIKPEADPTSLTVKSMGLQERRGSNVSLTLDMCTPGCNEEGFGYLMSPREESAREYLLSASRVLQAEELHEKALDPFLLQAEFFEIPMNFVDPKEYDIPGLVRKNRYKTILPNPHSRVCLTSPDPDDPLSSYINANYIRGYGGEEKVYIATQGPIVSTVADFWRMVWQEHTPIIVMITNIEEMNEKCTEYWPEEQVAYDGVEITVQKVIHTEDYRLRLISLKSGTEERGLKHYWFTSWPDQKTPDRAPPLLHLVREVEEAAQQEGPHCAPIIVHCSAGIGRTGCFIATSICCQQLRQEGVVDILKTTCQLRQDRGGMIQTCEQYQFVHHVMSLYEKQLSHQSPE
Assay: STEP46 biochemical assay (DiFMUP fluorescence phosphatase assay)
Conditions: DiFMUP 10 μM, read-out: STEP IC50
Method in brief: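 Compounds preincubated 30 min at room temperature with purified STEP46 (1 ng/well) in 50 mM Hepes, 1 mM DTT, 0.02% Brij35, then 10 μM DiFMUP (final) added for 90 min at 27 °C; 2% DMSO, fluorescence at 360/460 nm. IC50 from four-parameter fit of % inhibition; activators reported as negative % inhibition at 25, 50 and 100 uM.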

| IC50 [nM] | Compound |
| --- | --- |
| < 1000 | CN(C)c1cccc(-c2ccc3nc(-c4cccnc4)nc(Nc4ccc(F)c(Cl)c4)c3c2)c1 [Compound 643] |
| < 1000 | COc1ccc2nc(-c3cccnc3)nc(Nc3c(F)cccc3Cl)c2c1 [Compound 934] |
| 1000 to 10000 | COc1ccc2nc(-c3cccnc3)nc(Nc3ccc4scnc4c3)c2c1 [Compound 320] |
| 1000 to 10000 | Cc1cccc2c(Nc3cc(Cl)cc(Cl)c3)nc(-c3cnccn3)nc12 [Compound 1180] |
| 1000 to 10000 | Clc1ccc(Nc2nc(-c3cnccn3)nc3ccccc23)cc1Cl [Compound 1218] |
| < 1000 | Fc1ccc(Nc2nc(-c3cccnc3)nc3ccc(-c4cncnc4)cc23)cc1Cl [Compound 652] |
| 1000 to 10000 | Fc1ccc(Nc2nc(-c3cnccn3)nc3ccc(Cl)cc23)cc1Cl [Compound 1159] |
| 1000 to 10000 | Cc1cccc2c(Nc3cccc(C#N)c3)nc(-c3cnccn3)nc12 [Compound 1181] |
| 1000 to 10000 | Cc1cccc2c(Nc3ccc(Cl)c(Cl)c3)nc(-c3cnccn3)nc12 [Compound 1178] |
| < 1000 | COc1ccc2nc(-c3cnccn3)nc(Nc3cc(Cl)cc(Cl)c3)c2c1 [Compound 1194] |
| 1000 to 10000 | CCOc1ccc2nc(-c3cccnc3)nc(Nc3ccc4nonc4c3)c2c1 [Compound 334] |
| 1000 to 10000 | COc1ccc2nc(-c3cccnc3)nc(Nc3ccc4ncoc4c3)c2c1 [Compound 341] |
| < 1000 | Fc1ccc(Nc2nc(-c3cccnc3)nc3ccc(-c4ccccc4F)cc23)cc1Cl [Compound 641] |
| 1000 to 10000 | COc1ccc2nc(-c3cccnc3)nc(Nc3ccccc3Br)c2c1 [Compound 437] |
| 1000 to 10000 | Fc1ccc(-c2ccc3nc(-c4cccnc4)nc(Nc4ccc(F)c(Cl)c4)c3c2)c(F)c1 [Compound 671] |
| < 1000 | Fc1ccc(Nc2nc(-c3cccnc3)nc3ccc(-c4ccncc4)cc23)cc1Cl [Compound 651] |
| < 1000 | Clc1ccc(Nc2nc(-c3ccnnc3)nc3ccccc23)cc1Cl [Compound 1215] |
| 1000 to 10000 | COc1ccc2nc(-c3cnccn3)nc(Nc3ccc(F)c(Cl)c3)c2c1 [Compound 1191] |
| 1000 to 10000 | COc1ccc2nc(-c3ccnnc3)nc(Nc3ccc(Cl)c(Cl)c3)c2c1 [Compound 1184] |
| 1000 to 10000 | CN(C)c1ccc2nc(-c3ccnnc3)nc(Nc3ccc(F)c(Cl)c3)c2c1 [Compound 1152] |
| 1000 to 10000 | FC(F)Oc1cccc(Nc2nc(-c3ccnnc3)nc3ccccc23)c1 [Compound 1183] |
| > 10000 | COc1ccc2nc(-c3cccnc3)nc(Nc3ccc(Br)cc3)c2c1 [Compound 421] |
| < 1000 | COc1cc(-c2ccc3nc(-c4cccnc4)nc(Nc4ccc(F)c(Cl)c4)c3c2)ccc1C [Compound 670] |
| > 10000 | Clc1ccc2c(Nc3ccc(Cl)c(Cl)c3)nc(-c3ccnnc3)nc2c1 [Compound 1204] |
| 1000 to 10000 | CN(C)c1nc(-c2cccnc2)nc2ccc(-c3ccccc3Cl)cc12 [Compound 1332] |

Second part, the molecule before the results:

| Compound | IC50 [nM] |
| --- | --- |
| COc1ccc2nc(-c3cccnc3)nc(Nc3nc(C4CCCCC4)cs3)c2c1 [Compound 433] | 1000 to 10000 |
| CNc1nc(-c2cccnc2)nc2ccc(-c3ccc4sccc4c3)cc12 [Compound 1341] | 1000 to 10000 |
| CNc1nc(-c2cccnc2)nc2c(C)c(-c3cccc(C#N)c3)ccc12 [Compound 1453] | 1000 to 10000 |
| N#Cc1cccc(Nc2nc(-c3cccnc3)nc3cc(-c4ccc(F)cc4)ccc23)c1 [Compound 709] | < 1000 |
| NC(=O)c1ccc(-c2ccc3c(Nc4ccc(F)c(Cl)c4)nc(-c4cccnc4)nc3c2)cc1 [Compound 684] | 1000 to 10000 |
| Cc1ccc(F)c(-c2ccc3nc(-c4cccnc4)nc(Nc4ccc(F)c(Cl)c4)c3c2)c1 [Compound 669] | < 1000 |
| CN(C)c1nc(-c2cccnc2)nc2ccc(-c3cccc([N+](=O)[O-])c3)cc12 [Compound 1335] | 1000 to 10000 |
| CNc1nc(-c2cccnc2)nc2cc(-c3cccc(OC)c3)c(C)cc12 [Compound 1412] | 1000 to 10000 |
| COc1ccc2nc(-c3cccnc3)nc(Nc3nc(-c4ccc(Cl)cc4)c(C)s3)c2c1 [Compound 461] | 1000 to 10000 |
| COc1ccc2nc(-c3cccnc3)nc(Oc3ccc4[nH]c(=O)ccc4c3)c2c1 [Compound 346] | 1000 to 10000 |
| CNc1nc(-c2cccnc2)nc2cc(-c3ccccc3)ccc12 [Compound 1348] | > 10000 |
| COc1ccc2nc(-c3cccnc3)nc(Nc3cccc(-c4ccc(Cl)cc4)c3)c2c1 [Compound 427] | 1000 to 10000 |
| COc1ccc2nc(-c3cccnc3)nc(Nc3nc(-c4ccccc4OC(F)(F)F)cs3)c2c1 [Compound 454] | 1000 to 10000 |
| COc1ccc2nc(-c3cccnc3)nc(Nc3nc(-c4ccccc4)cs3)c2c1 [Compound 416] | < 1000 |
| CNc1nc(-c2cccnc2)nc2cc(-c3cccc(F)c3)ccc12 [Compound 1359] | 1000 to 10000 |
| CNc1nc(-c2cccnc2)nc2c(C)cc(-c3ccc(C#N)cc3)cc12 [Compound 1279] | 1000 to 10000 |
| CCOc1ccc2nc(-c3cccnc3)nc(Nc3nc(-c4ccc(F)cc4F)cs3)c2c1 [Compound 472] | 1000 to 10000 |
| CNc1nc(-c2cccnc2)nc2cc(-c3ccccc3F)ccc12 [Compound 1358] | 1000 to 10000 |
| COc1ccc2nc(-c3cccnc3)nc(Nc3nc(-c4ccccc4OC)cs3)c2c1 [Compound 436] | 1000 to 10000 |
| CCOc1ccc2nc(-c3cccnc3)nc(Nc3nc(-c4ccccc4)cs3)c2c1 [Compound 473] | 1000 to 10000 |
| COc1ccc2nc(-c3cccnc3)nc(Nc3ccc4c(C)cc(=O)[nH]c4c3)c2c1 [Compound 333] | < 1000 |
| COc1ccc2nc(-c3cccnc3)nc(Nc3nc(-c4c(F)cccc4F)cs3)c2c1 [Compound 459] | < 1000 |
| COc1ccc2nc(-c3ccnnc3)nc(Nc3ccccc3C(N)=O)c2c1 [Compound 1198] | 1000 to 10000 |
| COc1ccc2nc(-c3cccnc3)nc(Nc3ccc4ccc(=O)[nH]c4c3)c2c1 [Compound 325] | < 1000 |
| CNc1nc(-c2cccnc2)nc2c(C)cc(-c3cccc(C#N)c3)cc12 [Compound 1281] | < 1000 |

| Compound | IC50 [nM] |
| --- | --- |
| Cc1ccc(-c2ccc3c(Nc4ccc(F)c(Cl)c4)nc(-c4cccnc4)nc3c2)cc1 [Compound 695] | < 1000 |
| CC(C)Oc1cccc(-c2ccc3nc(-c4cccnc4)nc(Nc4ccc(F)c(Cl)c4)c3c2)c1 [Compound 673] | 1000 to 10000 |
| Fc1ccc(-c2ccc3c(Nc4cccc(OC(F)(F)F)c4)nc(-c4cccnc4)nc3c2)cc1 [Compound 708] | 1000 to 10000 |
| COc1ccc2nc(-c3ccnnc3)nc(Nc3cccc(OC(F)(F)F)c3)c2c1 [Compound 1188] | 1000 to 10000 |
| Fc1ccc(Nc2nc(-c3cccnc3)nc3ccc(-c4cccc(OC(F)(F)F)c4)cc23)cc1Cl [Compound 658] | 1000 to 10000 |
| CNc1nc(-c2ccncc2)nc2ccc(-c3ccc(F)cc3F)cc12 [Compound 1467] | 1000 to 10000 |
| COc1ccc2nc(-c3cccnc3)nc(Nc3nc(-c4cccc(OC(F)(F)F)c4)cs3)c2c1 [Compound 455] | 1000 to 10000 |
| COc1ccc2nc(-c3cccnc3)nc(Nc3ccc4ccc(=O)[nH]c4c3C)c2c1 [Compound 343] | > 10000 |
| Clc1cc(Cl)cc(Nc2nc(-c3ccnnc3)nc3cc(Cl)ccc23)c1 [Compound 1205] | 1000 to 10000 |
| CNc1nc(-c2cccnc2)nc2ccc(-c3cccc(OC)c3)cc12 [Compound 1248] | 1000 to 10000 |
| COc1ccc2nc(-c3cccnc3)nc(Nc3ccccc3C(=O)NCc3occc3C)c2c1 [Compound 901] | 1000 to 10000 |
| COc1ccc2nc(-c3cncnc3)nc(Nc3ccccc3C(N)=O)c2c1 [Compound 1172] | 1000 to 10000 |
| COc1ccc2nc(-c3ccnnc3)nc(Nc3ccc(F)c(F)c3)c2c1 [Compound 1186] | 1000 to 10000 |
| COc1cncc(-c2ccc3nc(-c4cccnc4)nc(Nc4ccc5[nH]c(=O)sc5c4)c3c2)c1 [Compound 329] | < 1000 |
| CNc1c(-c2ccc(C#N)cc2)ccc2nc(-c3cccnc3)nc(C)c12 [Compound 1424] | > 10000 |
| CNc1nc(-c2cccnc2)nc2ccc(-c3ccc4c(cnn4C)c3)cc12 [Compound 1366] | 1000 to 10000 |
| CNc1nc(-c2cccnc2)nc2ccc(-c3cccc4occc34)cc12 [Compound 1370] | 1000 to 10000 |
| COc1ccc2nc(-c3cccnc3)nc(Nc3ccc4c(c3)COC4)c2c1 [Compound 962] | < 1000 |
| Fc1ccc(-c2ccc3c(Nc4ccc(F)c(Cl)c4)nc(-c4cccnc4)nc3c2)cc1 [Compound 689] | < 1000 |
| CNc1nc(-c2ccnnc2)nc2ccc(-c3cccc(F)c3F)cc12 [Compound 1237] | 1000 to 10000 |
| CNc1nc(-c2cccnc2)nc2cc(C)c(-c3cccc(OC)c3)cc12 [Compound 1419] | 1000 to 10000 |
| CCNC(=O)c1sc(Nc2nc(-c3cccnc3)nc3ccc(OC)cc23)nc1-c1ccccc1 [Compound 1126] | 1000 to 10000 |
| CN(C)c1nc(-c2cccnc2)nc2ccc(-c3ccc([N+](=O)[O-])cc3)cc12 [Compound 1336] | 1000 to 10000 |
| CN(C)c1ccc(-c2ccc3nc(-c4cccnc4)nc(Nc4ccc(F)c(Cl)c4)c3c2)cc1 [Compound 668] | < 1000 |
| COc1ccc2nc(-c3cccnc3)nc(Nc3ccccc3C(=O)NCCC(F)(F)F)c2c1 [Compound 899] | 1000 to 10000 |
